Assay results as given in ChEMBL document CHEMBL5329200, “Structure-guided design and synthesis of ATP-competitive N-acyl-substituted sulfamide d-alanine-d-alanine ligase inhibitors” (Bioorg Med Chem, 2023).

Tests used:
[1] = tested on: Staphylococcus aureus; test: Inhibition of C-terminal hexahistidine-tagged recombinant Staphylococcus aureus Ddl expressed in Escherichia coli BL21(DE3) assessed as remaining activity using D-Ala as substrate at 250 uM incubated for 5 mins in presence of ATP by antimony phosphomolybdate assay (reference value: 100+/-2%)
[2] = Inhibition of C-terminal hexahistidine-tagged recombinant Staphylococcus aureus Ddl expressed in Escherichia coli BL21(DE3) using D-Ala as substrate in presence of ATP by PK/LDH couples assay

Activity [1] [%]	IC50 [2] [µM]	Compound
70	1700	Nc1ncnc2c1ncn2[C@@H]1O[C@H](CCNS(=O)(=O)NC(=O)OCCN2OC[C@@H](N)C2=O)[C@@H](O)[C@H]1O
95		CC1CN(C(=O)OC(C)(C)C)CCN1CCOC(=O)NS(=O)(=O)NCC[C@H]1O[C@@H](n2cnc3c(N)ncnc32)[C@H](O)[C@@H]1O (stereo partly drawn)
82		CC1(C)O[C@@H]2[C@H](O1)[C@@H](CCN)O[C@H]2n1cnc2c(N)ncnc21
90		CC(C)(C)OC(=O)N[C@@H]1CON(CCO)C1=O
84		Nc1ncnc2c1ncn2[C@@H]1O[C@H](CCNS(=O)(=O)NC(=O)OCCc2ccccc2F)[C@@H](O)[C@H]1O
63	2200	NCC[C@H]1O[C@@H](n2cnc3c(N)ncnc32)[C@H](O)[C@@H]1O
76	> 2500	CC1CNCCN1CCOC(=O)NS(=O)(=O)NCC[C@H]1O[C@@H](n2cnc3c(N)ncnc32)[C@H](O)[C@@H]1O (stereo partly drawn)
91		Nc1ncnc2c1ncn2[C@@H]1O[C@H](CCNS(=O)(=O)NC(=O)OCCc2cccc(Cl)c2)[C@@H](O)[C@H]1O
80	> 2500	Nc1ncnc2c1ncn2[C@@H]1O[C@H](CCNS(=O)(=O)NC(=O)OCCc2ccccc2)[C@@H](O)[C@H]1O
82		Cc1ccc(CCCOC(=O)NS(=O)(=O)NCC[C@H]2O[C@@H](n3cnc4c(N)ncnc43)[C@H](O)[C@@H]2O)cc1
72	1600	Nc1ncnc2c1ncn2[C@@H]1O[C@H](CCNS(N)(=O)=O)[C@@H](O)[C@H]1O
96		Nc1ncnc2c1ncn2[C@@H]1O[C@H](CCNS(=O)(=O)NC(=O)OCCCc2ccc(Cl)cc2)[C@@H](O)[C@H]1O
110		Nc1ncnc2c1ncn2CCCCNS(=O)(=O)NC(=O)OCCc1ccc(Cl)c(Cl)c1
87		Nc1ncnc2c1ncn2[C@@H]1O[C@H](CCNS(=O)(=O)NC(=O)OCCc2ccccc2Cl)[C@@H](O)[C@H]1O
90		COc1ccc(CCCCOC(=O)NS(=O)(=O)NCC[C@H]2O[C@@H](n3cnc4c(N)ncnc43)[C@H](O)[C@@H]2O)cc1
91		CC(C)(C)OC(=O)NS(=O)(=O)NCC[C@H]1O[C@@H](n2cnc3c(N)ncnc32)[C@@H]2OC(C)(C)O[C@@H]21
79	> 2500	Nc1ncnc2c1ncn2[C@@H]1O[C@H](CCNS(=O)(=O)NC(=O)OCCCC2CCCC2)[C@@H](O)[C@H]1O
89		COc1ccc(CCOC(=O)NS(=O)(=O)NCC[C@H]2O[C@@H](n3cnc4c(N)ncnc43)[C@H](O)[C@@H]2O)cc1
85		Nc1ncnc2c1ncn2[C@@H]1O[C@H](CCNS(=O)(=O)NC(=O)OCCc2ccc(Cl)c(Cl)c2)[C@@H](O)[C@H]1O
89		CC1(C)O[C@@H]2[C@H](O1)[C@@H](CCNS(=O)(=O)NC(=O)OCCc1ccc(Cl)c(Cl)c1)O[C@H]2n1cnc2c(N)ncnc21
35	100	N[C@@H]1CONC1=O [CYCLOSERINE]
